These results are taken from PMC9386001, “Identification of naturally occurring inhibitors in Xian-Ling-Gu-Bao capsule against the glucuronidation of estrogens” (Frontiers in Pharmacology, 2022).

Broadly, the IC50 is the concentration that gives 50% inhibition. For orientation: Km means the concentration of substrate that gives half-maximal velocity.

In data set [1] the target is T1, UGT1A1 (Homo sapiens, UniProt P22309).
T1 sequence (P22309 26-533): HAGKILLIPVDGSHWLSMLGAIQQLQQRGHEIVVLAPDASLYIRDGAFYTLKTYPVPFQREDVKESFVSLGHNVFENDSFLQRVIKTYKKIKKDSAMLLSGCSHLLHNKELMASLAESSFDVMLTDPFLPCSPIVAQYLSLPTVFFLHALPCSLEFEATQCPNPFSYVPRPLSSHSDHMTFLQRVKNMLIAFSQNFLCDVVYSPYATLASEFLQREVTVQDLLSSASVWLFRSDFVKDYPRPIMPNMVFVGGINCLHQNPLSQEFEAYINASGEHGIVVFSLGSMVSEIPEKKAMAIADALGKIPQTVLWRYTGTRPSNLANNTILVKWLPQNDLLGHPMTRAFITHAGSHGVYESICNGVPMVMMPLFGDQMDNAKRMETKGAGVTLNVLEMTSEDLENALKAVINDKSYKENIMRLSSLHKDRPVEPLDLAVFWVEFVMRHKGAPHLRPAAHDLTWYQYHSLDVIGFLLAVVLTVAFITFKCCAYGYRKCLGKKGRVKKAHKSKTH
Kind of data set: Estrogen glucuronidation kinetics by expressed UGT1A1. The settings on record: 3-O-glucuronide formation. On the procedure:
(§1) In brief, incubation mixtures (100 μL) contained Tris-HCl buffer solution (50 mM, pH = 7.4), microsomes (HLM, HIM, 0.5 mg/ml) or UGT enzymes (1 mg/ml), MgCl2 (0.88 mM), alamethicin (22 μg/ml), and D-saccharic-1,4-lactone (4.4 mM) and respective substrate. The volume of organic solvent in incubation mixtures was kept below 1%. After pre-incubation at 37°C for 5 min, the reaction was commenced with the addition of UDPGA (4 mM) and subsequently incubated at 37°C for a period. The reaction was terminated by adding 100 μL of cold acetonitrile. Then, the incubation mixtures were vortexed and centrifuged at 13,800 g for 10 min to collect the supernatant for analysis.
(§2) All experiments were performed in triplicate.
(§3) Glucuronidation rates were expressed as the amounts of formed metabolites per minute per milligram protein (pmol/min/mg protein) based on Eq. 1. Furthermore, kinetic characteristics were evaluated from the suitable curves based on the profile of the Eadie–Hofstee plot, and corresponding kinetic parameters were estimated using Eqs 2–4. Appropriated model fitting was performed by GraphPad Prism V5 software (San Diego, CA).
(§4) The intrinsic clearance (CL int ) was derived from V max /K m for Michaelis–Menten and substrate inhibition models, and the maximal clearance (CL max ) was obtained using Eq. 5 for Hill kinetics. Vg=Cs∗V/Cprotein∗T∗Vprotein. […]

Data set [2] deals with T2, UGT1A10 (Homo sapiens, UniProt Q9HAW8).
T2 sequence (Q9HAW8 26-530): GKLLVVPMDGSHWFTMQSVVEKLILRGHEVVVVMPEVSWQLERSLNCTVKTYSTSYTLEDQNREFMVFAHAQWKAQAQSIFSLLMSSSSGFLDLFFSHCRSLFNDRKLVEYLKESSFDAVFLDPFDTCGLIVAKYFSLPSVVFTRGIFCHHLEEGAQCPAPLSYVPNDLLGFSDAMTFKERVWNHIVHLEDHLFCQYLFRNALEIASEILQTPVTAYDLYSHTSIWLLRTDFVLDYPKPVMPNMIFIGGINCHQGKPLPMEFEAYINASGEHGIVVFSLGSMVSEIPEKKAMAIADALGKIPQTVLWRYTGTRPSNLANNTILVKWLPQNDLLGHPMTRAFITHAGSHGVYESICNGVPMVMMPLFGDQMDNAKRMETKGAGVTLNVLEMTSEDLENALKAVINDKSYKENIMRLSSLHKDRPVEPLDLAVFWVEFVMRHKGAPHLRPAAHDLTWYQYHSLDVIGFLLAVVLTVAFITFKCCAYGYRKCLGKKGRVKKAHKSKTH
Put plainly: Glucuronidation kinetics by expressed UGT1A10. How it is done: as §1, with “The glucuronidation assay was conducted as described previously ([Qin et al., 2018]; [Xu et al., 2018]). In” for “In”
as §2, §3
(§5) The intrinsic clearance (CL int ) was derived from V max /K m for Michaelis–Menten and substrate inhibition models, and the maximal clearance (CL max ) was obtained using Eq. 5 for Hill kinetics. Vg=Cs∗V/Cprotein∗T∗Vprotein. (1) V=Vmax×[S]/Km+[S], (2) V=Vmax×[S]/Km+[S](1+[S]/Ksi), (3) V=Vmax×[S]^n/S50n[…], (4) CLmax=Vmax/S50×n−1/n(n−1)^1/n. (5)

The target of data set [3] is T1, UGT1A1. Put plainly: Inhibition of UGT1A1 (β-estradiol-3-O-glucuronidation). Conditions: for Inhibitory type: UGT1A1, best model by smallest AIC and SC; for activity at 10 µM: human, human UGT1A1 enzyme, probe β-estradiol (E2). How it is done:
(§6) The final volume of solvent in incubations was 1%. In addition, emodin, atazanavir, and diclofenac were considered as positive controls for UGT1A10, UGT1A1, and UGT2B7, respectively.
(§7) Competitive inhibition, non-competitive inhibition, and mixed-type inhibition models were used to estimate the Ki values by nonlinear regression based on Eqs 6–8, respectively.

For data set [4], the target named is T2, UGT1A10. Put plainly: Inhibition of UGT1A10 (4-methylumbelliferone-O-glucuronidation). The settings on record: for Inhibitory type: UGT1A10, best model by smallest AIC and SC; for activity at 10 µM: human, expressed human UGT1A10 enzyme, probe 4-methylumbelliferone (4-MU). On the procedure: as §6, §7
The target in the next data set is T3, UGT2B7 (Homo sapiens, UniProt P16662).
T3 sequence (P16662 24-529): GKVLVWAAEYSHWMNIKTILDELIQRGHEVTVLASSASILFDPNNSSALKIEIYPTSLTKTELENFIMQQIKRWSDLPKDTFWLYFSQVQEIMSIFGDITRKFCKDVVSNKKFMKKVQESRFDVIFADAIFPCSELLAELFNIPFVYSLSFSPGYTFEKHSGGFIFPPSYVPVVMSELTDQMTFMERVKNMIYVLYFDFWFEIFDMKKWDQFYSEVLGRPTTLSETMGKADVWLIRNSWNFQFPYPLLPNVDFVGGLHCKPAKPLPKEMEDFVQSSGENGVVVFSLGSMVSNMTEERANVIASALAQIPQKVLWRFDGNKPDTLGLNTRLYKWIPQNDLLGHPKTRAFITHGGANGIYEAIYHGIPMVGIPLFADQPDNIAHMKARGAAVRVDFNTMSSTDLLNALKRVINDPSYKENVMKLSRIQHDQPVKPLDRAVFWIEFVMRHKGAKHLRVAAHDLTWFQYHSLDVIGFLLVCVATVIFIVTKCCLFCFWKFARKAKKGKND
Put plainly: Inhibition of UGT2B7 (zidovudine-N-glucuronidation). The settings on record: for Inhibitory type / α: UGT2B7; for Inhibitory type: best model by smallest AIC and SC; for α: mixed-type inhibition model, αKi; for activity at 10 µM: human, UGT2B7 enzyme (optimized UGT2B7 incubation system), probe zidovudine (AZT). On the procedure: as §6, §7

In data set [5] the test system is UGT1A1. The arrangement: method as in Wang et al., 2015a. The settings on record: ref Wang et al., 2015a; cited from earlier work.
Data set [6] deals with T2, UGT1A10. Set-up: purchased Corning Biosciences. Conditions: substrate of UGT1A10; ref Xin et al., 2016; Gao et al., 2020; cited from earlier work.
For data set [7], the system named is human liver microsomes (HLM). Put plainly: Estrogen glucuronidation kinetics by HLM. In kind it is in vitro ADME. The settings on record: HLM; 3-O-glucuronide formation. How it is done:
as §1, §2, §3, §5

Data set [8] is described as follows: Estrogen glucuronidation kinetics by HIM. In kind it is in vitro ADME, human. The settings on record: human, human intestine microsomes, pH 7.4, HIM; 3-O-glucuronide formation; read-out: CL int or CL max. How it is done: as §2
(§8) Vg=Cs∗V/Cprotein∗T∗Vprotein. […] (5)

Data set [9] has as its system human intestine microsomes (HIM). Put plainly: Estrogen glucuronidation kinetics by HIM. In kind it is in vitro ADME. Conditions: HIM, 3-O-glucuronide formation. How it is done: as §2, §8
Another data set concerns the target T4, UGT1A3 (Homo sapiens, UniProt P35503).
T4 construct: purchased Corning Biosciences
T4 sequence (P35503 29-534): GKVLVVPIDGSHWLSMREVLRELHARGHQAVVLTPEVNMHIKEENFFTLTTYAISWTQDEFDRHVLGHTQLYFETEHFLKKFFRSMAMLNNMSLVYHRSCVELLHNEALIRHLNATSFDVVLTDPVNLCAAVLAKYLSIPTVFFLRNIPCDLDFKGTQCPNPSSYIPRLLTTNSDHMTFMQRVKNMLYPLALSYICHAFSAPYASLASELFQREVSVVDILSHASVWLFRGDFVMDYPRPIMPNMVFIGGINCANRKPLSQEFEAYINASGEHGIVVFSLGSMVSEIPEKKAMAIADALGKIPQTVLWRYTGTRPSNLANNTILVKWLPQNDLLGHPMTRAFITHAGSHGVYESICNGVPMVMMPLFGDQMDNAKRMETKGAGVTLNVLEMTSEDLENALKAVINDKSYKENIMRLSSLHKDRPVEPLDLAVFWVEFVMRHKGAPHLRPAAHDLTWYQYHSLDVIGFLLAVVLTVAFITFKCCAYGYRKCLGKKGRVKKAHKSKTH
Kind of data set: Estrogen glucuronidation kinetics by expressed UGT1A3. Type of data set: in vitro ADME. How it is done:
as §1, §2, §3, §4

Substrate in data set [10]: C[C@]12CC[C@@H]3c4ccc(O)cc4CC[C@H]3[C@@H]1CCC2=O
The description is as above. Type of data set: in vitro ADME, human. Conditions: other: UGT1A3; 3-O-glucuronide formation; pH 7.4; 37.0 °C.

Turning to `C[C@]12CC[C@@H]3c4ccc(O)cc4CC[C@H]3[C@@H]1CC[C@@H]2O` [E2, β-estradiol], the “K m or S50” value came out at 11.08 ± 0.48 µM at UGT1A1 [1], 113.2 ± 46.66 µM on UGT1A10 [2] (3-O-glucuronide formation) and 16.39 ± 3.53 µM at UGT1A10 [2] (17-O-glucuronide formation). This molecule also registered a V max on UGT1A1 [1] of 754.9 ± 15.14 pmol/min/mg. Also, the Ki at UGT1A10 [2] (3-O-glucuronide formation, substrate inhibition constant) is 71980 ± 35770 nM.
As for `CC(C)=CCc1cc2c(cc1O)O[C@H](c1ccc(O)cc1)CC2=O` [Bavachin, bavachin], on UGT1A1 [3], the IC50 was 610 ± 20 nM, the Ki worked out at 400 ± 50 nM, the Inhibitory type entry was “Non-competitive” and the activity at 10 µM is 2.43%. Besides, on UGT1A10 [4], the 50% inhibitory concentration (IC50) turned out to be 5630 ± 460 nM, the Ki was 2810 ± 210 nM, the Inhibitory type result is listed as “Competitive” and the activity at 10 µM amounted to 35.6%. On UGT2B7, the 50% inhibitory concentration (IC50) worked out at 4970 ± 550 nM, the Ki worked out at 640 ± 160 nM, the Inhibitory type result is on record as “Mixed type” and the α is 69.70 ± 6.67. On UGT2B7, the activity at 10 µM came out at 32.5%. The Ki in the data set with UGT1A1 [5] is less than 1000 nM.
On to `Cc1cc(=O)oc2cc(O)ccc12` [4-MU, 4-methylumbelliferone], for which the Km at UGT1A10 [6] was approximately 60 µM.
For `CC(C)=CCC/C(C)=C/Cc1cc(-c2coc3cc(O)ccc3c2=O)ccc1O` [Corylifol A, corylifol A], at UGT1A1 [3], the 50% inhibitory concentration (IC50) worked out at 440 ± 50 nM, the Ki amounted to 440 ± 70 nM, the Inhibitory type entry is on record as “Competitive” and the activity at 10 µM was 0.72%. On UGT1A10 [4], the half-inhibitory concentration (IC50) was found to be 2910 ± 340 nM, the Ki came out at 780 ± 60 nM, the Inhibitory type entry is on record as “Non-competitive” and the activity at 10 µM stood at 13.9%. On UGT2B7, the midpoint of inhibition, the IC50, lay at 880 ± 80 nM; the Ki was 360 ± 70 nM; the Inhibitory type entry is “Mixed type”; the α is reported as 5.17 ± 3.55. Also, at UGT2B7, the activity at 10 µM was found to be 0%. Also, the Ki in the data set with UGT1A1 [5] was less than 1000 nM.
Turning to `C[C@]12CC[C@@H]3c4ccc(O)cc4CC[C@H]3[C@@H]1CCC2=O` [E1, Estrone], the “K m or S50” value in [7] turned out to be 6.87 ± 0.59 µM; in data set [9] it was 8.82 ± 0.37 µM. Further, the microsomal CLint in data set [8] was found to be 25.25 ± 0.24 µL/min/mg; on UGT1A3 (human, recombinant (expressed) UGT1A3, pH 7.4, 3-O-glucuronide formation, read-out: CL int or CL max) it was 11.7 ± 0.95 µL/min/mg. Moreover, the h in data set [9] (Hill coefficient) was 1.63 ± 0.09; on UGT1A3 (3-O-glucuronide formation, Hill coefficient), 2.09 ± 0.16.

B1: UGT1A3 (Homo sapiens) (protein)
chain: T4 sequence (P35503 29-534)
notes: purchased Corning Biosciences
Regarding B1, the K0.5 in data set [10] came to 9.23 ± 0.39 µM.
